Measurements reported in patent US20080261863A1 (priority 2004, published 2008).

Columns and labels:
[1] = Measurement of blood pressure in anesthetized rats; assay type: in vivo, rat; settings: male, Wistar, rat, in vivo; intravenous, rats; read-out: ED50 blood pressure lowering
Description: (§1) Blood pressure in rats was measured following administration of either non-PEGylated or PEGylated VPAC2 agonist peptides. Blood pressure was measured as follows: Male Wistar rats were anesthetized with pentobarbital (55 mg/kg, i.p.) and the right carotid artery and jugular vein were cannulated. The carotid cannula was connected to the Biopac System (Harvard Apparatus Co., Harvard, Mass.) for continuous monitoring of blood pressure and heart rate. Vehicle or peptide was administered by injection through the jugular vein catheter.

[2] = system: blood pressure in Male Wistar rats; assay: Measurement of blood pressure in anesthetized rats; assay type: in vivo, rat; settings: FIG. 2, percentage of mean blood pressure of vehicle-treated rats
Description: as §1

VPAC2 receptor = biological target: T1, VPAC2 receptor (Homo sapiens, UniProt P41587); assay: Cyclic AMP SPA in CHO cells expressing VPAC2; assay type: cell-based; settings: cAMP in cells overexpressing the VPAC2 receptor
T1 construct: expressed in transfected cells; host or cells: CHO cells under hygromycin and Geneticin selection
T1 sequence (P41587 24-438): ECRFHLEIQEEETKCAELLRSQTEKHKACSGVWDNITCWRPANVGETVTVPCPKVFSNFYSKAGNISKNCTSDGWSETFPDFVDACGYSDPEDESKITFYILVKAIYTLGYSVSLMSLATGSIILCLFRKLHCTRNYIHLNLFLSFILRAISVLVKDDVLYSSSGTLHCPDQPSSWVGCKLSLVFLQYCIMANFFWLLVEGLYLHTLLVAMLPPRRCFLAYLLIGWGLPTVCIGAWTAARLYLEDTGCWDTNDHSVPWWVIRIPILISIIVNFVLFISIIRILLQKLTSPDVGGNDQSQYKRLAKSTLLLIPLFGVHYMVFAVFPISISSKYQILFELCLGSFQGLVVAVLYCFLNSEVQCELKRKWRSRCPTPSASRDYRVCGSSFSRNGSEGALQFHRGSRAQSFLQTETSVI
Description: CHO cells expressing the VPAC2 peptide were plated in 96-well plates at 8×10^4 cells/well and grown at 37° C. for 24 hours in αMEM, nucleosides, glutamine (Gibco/BRL, Rockville, Md.), 5% FBS, 100 μg/mL Pen/Strep, 0.4 mg/mL hygromycin, and 1.5 mg/mL Geneticin (Gibco/BRL). The media was removed and the plates were washed with PBS. The cells were incubated with a peptide (in 10 mM Hepes, 150 mM NaCl, 5 mM KCl, 2.5 mM CaCl2, 1.2 mM KH2PO4, 1.2 mM MgSO4, 25 mM NaHCO3 (pH 7.4) with 1% BSA and 100 μM IBMX) for 15 min. at 37° C. Cyclic AMP in the cell extracts was quantitated using the cAMP SPA direct screening assay system (Amersham Pharmacia Biotech Inc., Piscataway, N.J.,). The amount of cAMP present in the lysates was determined following instructions provided with this kit. The amount of cAMP (in pmol) produced at each concentration of peptide was plotted and analyzed by nonlinear regression using Prizm software to determine the EC50 for each peptide.

VPAC1 = biological target: T2, VPAC1 (Homo sapiens, UniProt P32241); assay: Cyclic AMP assay, VPAC1 agonist activity; assay type: cell-based
T2 sequence (P32241 31-457): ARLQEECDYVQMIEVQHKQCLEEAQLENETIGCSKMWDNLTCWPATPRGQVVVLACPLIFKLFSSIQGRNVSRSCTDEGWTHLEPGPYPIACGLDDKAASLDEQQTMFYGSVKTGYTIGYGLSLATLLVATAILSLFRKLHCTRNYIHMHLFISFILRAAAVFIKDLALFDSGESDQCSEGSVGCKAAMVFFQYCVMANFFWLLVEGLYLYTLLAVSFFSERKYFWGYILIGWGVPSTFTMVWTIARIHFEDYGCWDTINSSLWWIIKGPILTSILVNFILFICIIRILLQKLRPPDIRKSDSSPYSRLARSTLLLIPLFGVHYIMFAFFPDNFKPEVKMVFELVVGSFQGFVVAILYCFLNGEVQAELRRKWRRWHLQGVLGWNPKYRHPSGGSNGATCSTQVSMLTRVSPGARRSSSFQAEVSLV

| Molecule | ED50 [1] | effect on blood pressure [2] | VPAC2 receptor agonist activity (VPAC2 receptor) | VPAC1 agonist activity (VPAC1) |
| --- | --- | --- | --- | --- |
| CC[C@H](C)[C@H](NC(=O)[C@H](CO)NC(=O)[C@H](CCC(N)=O)NC(=O)[C@H](CC(C)C)NC(=O)[C@H](Cc1ccc(O)cc1)NC(=O)[C@H](CCCCN)NC(=O)[C@H](CCCCN)NC(=O)[C@H](C)NC(=O)[C@H](C)NC(=O)[C@@H](NC(=O)[C@H](CCC(N)=O)NC(=O)[C@H](CCCCN)NC(=O)[C@H](CCCNC(=N)N)NC(=O)[C@H](CC(C)C)NC(=O)[C@H](CCCNC(=N)N)NC(=O)[C@@H](NC(=O)[C@H](Cc1ccc(O)cc1)NC(=O)[C@H](CCC(N)=O)NC(=O)[C@H](CC(=O)O)NC(=O)[C@@H](NC(=O)[C@H](Cc1ccccc1)NC(=O)[C@@H](NC(=O)[C@H](C)NC(=O)[C@H](CC(=O)O)NC(=O)[C@H](CO)NC(=O)[C@@H](N)Cc1c[nH]cn1)C(C)C)[C@@H](C)O)[C@@H](C)O)C(C)C)C(=O)N[C@@H](CCCCN)C(=O)N[C@@H](CCC(N)=O)C(=O)N[C@@H](CCCCN)C(=O)N[C@@H](CCCNC(=N)N)C(=O)N[C@@H](Cc1ccc(O)cc1)C(=O)N[C@@H](CS)C(=O)O [Peptide P12] | 3 µg/kg | significantly lowers blood pressure |  |  |
| PACAP-27 |  |  | potent agonist of both the VPAC1 and VPAC2 receptors | potent agonist of both the VPAC1 and VPAC2 receptors |
